Measured values taken from patent US11779572B1, “Methods of treating gastrointestinal stromal tumors” (Deciphera Pharmaceuticals, LLC, priority 2022, dated 2023).

Experiments:
[1] = PBPK model of ripretinib and DP-5439 (Simcyp Simulator)
Description: (§1) A PBPK model that included a mechanistic absorption model was developed.
Thus, potential auto-induction and auto-inhibition effects were captured within the model.
Single dose (SD) PK data from participants with mild, moderate, and severe HI were used to refine and/or verify the PBPK model. […] Subsequently, the corresponding plasma concentration-time profiles in HI participants were likewise simulated and compared to the observed data.
Predictions of plasma drug concentration-time profiles, clearance and DDIs were performed in the Simcyp Simulator using a population of virtual participants. The default healthy participant population was applied in all simulations involving healthy participants. […] With the exception of demographic data, all parameter values for the healthy participant population were the same as those used for the North European Caucasian population.
For simulations involving cancer participants, the North European Caucasian population was used to accommodate the wider age range observed in this population (19 to 87 years old; median 61 years). Weibull age distribution was applied with alpha and beta values of 5.47 and 66.5 years for male participants and 5.22 and 68.57 years for female participants. Age, height and weight distributions for the simulated virtual participant population were consistent with those from the first-in-human dose-escalation study in cancer patients.
For simulations involving participants with HI, 3 population models have been developed for the Simcyp Simulator and are based on the 3 Child-Pugh categories (CP-A, CP-B and CP-C). […] When reduced hepatic size was also taken into account, overall CYP3A4 expression in CP-A, CP-B and CP-C participants was reduced to 69%, 36% and 20%, respectively, to that of healthy participants.

[2] = tested on: advanced GIST; experiment: Randomized, double-blind, placebo-controlled study of ripretinib in advanced GIST (Example 1): efficacy; type: in vivo, human
Description: Patients were randomized 2:1 to either 150 mg of ripretinib or placebo once daily. The primary efficacy endpoint is progression-free survival (PFS) as determined by independent radiologic review using modified Response Evaluation Criteria in Solid Tumors (RECIST). Secondary endpoints as determined by independent radiologic review using modified RECIST include Objective Response Rate (ORR), Time to Tumor Progression (TTP) and Overall Survival (OS).
Results. This study achieved its primary endpoint of improved PFS as determined by blinded independent central radiologic review using modified Response Evaluation Criteria in Solid Tumors (RECIST) version 1.1.
Patients whose disease progressed during the double blind phase of the study were escalated to 150 mg BID ripretinib, continued at the 150 mg QD dose, or discontinued in an open label-phase of the study.

[3] = tested on: GIST; experiment: Clinical study in second-line through fourth-line plus GIST, ≥100 mg daily (Example 2): efficacy; type: in vivo, human
Description: Results. Data from 178 GIST patients receiving ripretinib at doses of ≥100 mg daily are noted in Table 2. The table includes investigator-assessed objective response rate (ORR) by best response, disease control rate (DCR) and median progression free survival (mPFS), all of which were determined by Response Evaluation Criteria in Solid Tumors (RECIST) version 1.1.
In Table 2, (1) indicates overall number of patients (n=178) remains the same as prior data presented at ESMO 2018; based on additional data cleaning, one patient from each of 2nd line and 4th/≥4th line were reclassified as 3rd line patients; (2) refers to median treatment durations were: 2nd line=44 weeks, 3rd line=48 weeks, 4th line=46 weeks and ≥4th line=29 weeks; (3) refers to including 60 patients who elected for intra-patient dose escalation from 150 mg QD to 150 mg BID; and (4) refers to the number of patients including 60 patients from 4th line.

[4] = tested on: GIST; experiment: Phase 1 study, ripretinib 150 mg QD, second-line through fourth-line plus GIST (Example 3): efficacy; type: in vivo, human; conditions: for Best response (confirmed only): CR / Best response (confirmed only): PR / Best response (confirmed only): Progressive disease / Best response (confirmed only): Stable disease / ORR, n (95% CI) / PFS, Median: 150 mg QD; for ORR, n (95% CI): CR+PR; for PFS, Median: investigator assessment
Description: Efficacy and safety results from the escalation and expansion phases of a phase 1 study for patients with GIST treated at ripretinib 150 mg QD as the starting dose in 28-day cycles are presented. Local, investigator-assessed Response Evaluation Criteria in Solid Tumors (RECIST 1.1) response assessments were performed every 2 cycles, and patients in the expansion cohorts who progressed per RECIST 1.1 were allowed to dose escalate to 150 mg BID.
142 patients with GIST in the escalation and expansion phases were treated at 150 mg QD dose. Number of patients by line of therapy were as follows: 31 2nd line, 28 3rd line, and 83≥4th line patients. 135 patients (95.1%) had KIT-mutant GIST, and 7 patients (4.9%) had PDGFRA-mutant GIST.
For example, the confirmed-only complete response (CR), partial response (PR), stable disease, and progressive disease are presented in Table 4. The objective response rate data in Table 4 relates to the proportion of patients with CR+PR. The median PFS data in Table 4 refers to progression-free survival per investigator assessment, by line of therapy.
In Table 4: ^a64 subjects escalated to 150 mg BID among patients with GIST in the 150 mg QD dose group. CI, confidence interval; CR, complete response; NE, not estimable; ORR, objective response rate; PFS, progression-free survival; PR, partial response; SD, […]. Local (investigator) response assessment.

[5] = molecular target: CYP3A4 (Homo sapiens, UniProt P08684); experiment: Contribution of CYP enzymes to metabolism, in vitro data; type: in vitro ADME; conditions: base model, based on in vitro data
Sequence of CYP3A4 (P08684 whole entry): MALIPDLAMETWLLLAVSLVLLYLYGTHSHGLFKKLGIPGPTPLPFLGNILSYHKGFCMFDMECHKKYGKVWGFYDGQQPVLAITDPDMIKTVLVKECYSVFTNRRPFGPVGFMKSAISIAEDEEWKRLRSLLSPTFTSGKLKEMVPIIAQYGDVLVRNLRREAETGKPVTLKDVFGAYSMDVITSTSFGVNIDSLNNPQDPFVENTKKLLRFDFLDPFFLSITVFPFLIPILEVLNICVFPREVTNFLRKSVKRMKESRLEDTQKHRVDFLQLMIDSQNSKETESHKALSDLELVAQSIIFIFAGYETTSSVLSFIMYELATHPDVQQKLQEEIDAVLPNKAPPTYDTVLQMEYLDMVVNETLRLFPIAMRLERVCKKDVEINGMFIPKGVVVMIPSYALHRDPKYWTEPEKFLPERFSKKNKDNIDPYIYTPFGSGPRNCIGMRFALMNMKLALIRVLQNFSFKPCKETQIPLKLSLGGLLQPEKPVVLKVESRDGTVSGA
Description: as §1

[6] = patients crossed over from placebo to ripretinib

CCn1c(=O)c(-c2cc(NC(=O)Nc3ccccc3)c(F)cc2Br)cc2cnc(NC)cc21 [ripretinib]
all predictions relative to observed ([1]; 150 mg QD dose): ≤ 1.25 fold | predicted mean AUC0-12 and Cmax relative to observed values ([1]; Day 1 and Day 15, except 250-mg QD dose): ≤ 1.5 fold | benefit over placebo (PFS, OS), primary Exon 11 and Exon 9 mutation ([2]; 150 mg QD, FIG. 17): derive a benefit | OS rate at 12 months ([2]; 150 mg once daily): 65.4% | PFS rate at 6 months ([2]; 150 mg once daily): 51% | reduction of risk of disease progression or death compared to placebo ([2]; 150 mg once daily): 85% | median PFS ([2]; 150 mg once daily, initial ripretinib arm): 27.6 weeks | median PFS ([2]; 150 mg once daily, BICR, modified RECIST 1.1, double-blind cut): 6.3 months | median PFS ([2]; 150 mg once daily, BICR, modified RECIST 1.1, double-blind cut, listed as Ripretinib): 6.3 (4.6, 6.9) months | PFS compared to placebo in subgroups with Exon 9, 11, 13 or 17 KIT mutations ([2]; FIG. 26A-D): PFS benefit in all assessed patient subgroups | Overall survival: number of deaths (%) ([2]; double-blind cut): 26 (31) | PFS by BICR: deaths, number (%) ([2]; double-blind cut): 5 (6) | PFS by BICR: number of events (%) ([2]; double-blind cut): 51 (60) | PFS by BICR: progressive disease, number (%) ([2]; double-blind cut): 46 (54) | objective/overall response rate by BICR ([2]; modified RECIST 1.1, double-blind cut): 9.4% | objective/overall response rate by BICR ([2]; modified RECIST 1.1, double-blind cut, listed as Ripretinib): 9% | Median OS (95% CI) ([2]; open-label cut): Not Reached | Median PFS (95% CI) ([2]; open-label cut): 6.3 (4.6, 8.1) months | Overall Response Rate by BICR ([2]; open-label cut): 12% | Overall survival: number of deaths (%) ([2]; open-label cut): 38 (45) | PFS by BICR: deaths, number (%) ([2]; open-label cut): 6 (7) | PFS by BICR: number of events (%) ([2]; open-label cut): 64 (75) | PFS by BICR: progressive disease, number (%) ([2]; open-label cut): 58 (68) | median OS [2, 6]: 11.6 months | median PFS [2, 6]: 20.0 weeks | median OS ([2]; patients initially randomized to ripretinib, double-blind cut): 15.1 months | median OS ([2]; patients initially randomized to ripretinib, double-blind cut, listed as Ripretinib): 15 (12, 15) months | Disease Control Rate at 3 Months ([3]; Fourth-Line (n = 60)): 73% | Median Progression Free Survival (mPFS) ([3]; Fourth-Line (n = 60)): 30 weeks | Objective Response Rate by Best Response, includes unconfirmed ([3]; Fourth-Line (n = 60)): 15% | Objective Response Rate, confirmed only ([3]; Fourth-Line (n = 60)): 8% | Disease Control Rate at 3 Months ([3]; Second-Line (n = 37)): 81% | Median Progression Free Survival (mPFS) ([3]; Second-Line (n = 37)): 42 weeks | Objective Response Rate, confirmed only ([3]; Second-Line (n = 37)): 22% | Objective Response Rate by Best Response, includes unconfirmed ([3]; Second-Line (n = 37), ≥100 mg daily, RECIST 1.1, investigator): 30% | Disease Control Rate at 3 Months ([3]; Third-Line (n = 31)): 80% | Median Progression Free Survival (mPFS) ([3]; Third-Line (n = 31)): 40 weeks | Objective Response Rate by Best Response, includes unconfirmed ([3]; Third-Line (n = 31)): 23% | Objective Response Rate, confirmed only ([3]; Third-Line (n = 31)): 13% | Disease Control Rate at 3 Months ([3]; ≥Fourth-Line (n = 110)): 66% | Median Progression Free Survival (mPFS) ([3]; ≥Fourth-Line (n = 110)): 24 weeks | Objective Response Rate by Best Response, includes unconfirmed ([3]; ≥Fourth-Line (n = 110)): 11% | Objective Response Rate, confirmed only ([3]; ≥Fourth-Line (n = 110)): 7% | Best response (confirmed only): CR ([4]; 2nd Line (n = 31)): 0 n (%) | Best response (confirmed only): PR ([4]; 2nd Line (n = 31)): 6 (19.4) n (%) | Best response (confirmed only): Progressive disease ([4]; 2nd Line (n = 31)): 4 (12.9) n (%) | Best response (confirmed only): Stable disease ([4]; 2nd Line (n = 31)): 21 (67.7) n (%) | ORR, n (95% CI) ([4]; 2nd Line (n = 31)): 19.4 (7.5, 37.5) | PFS, Median ([4]; 2nd Line (n = 31)): 46.4 weeks | Best response (confirmed only): CR ([4]; 3rd Line (n = 28)): 0 n (%) | Best response (confirmed only): PR ([4]; 3rd Line (n = 28)): 4 (14.3) n (%) | Best response (confirmed only): Progressive disease ([4]; 3rd Line (n = 28)): 6 (21.4) n (%) | Best response (confirmed only): Stable disease ([4]; 3rd Line (n = 28)): 18 (64.3) n (%) | ORR, n (95% CI) ([4]; 3rd Line (n = 28)): 14.3 | PFS, Median ([4]; 3rd Line (n = 28)): 36.3 weeks | Best response (confirmed only): CR ([4]; ≥4th Line (n = 83)): 0 n (%) | Best response (confirmed only): PR ([4]; ≥4th Line (n = 83)): 6 (7.2) n (%) | Best response (confirmed only): Progressive disease ([4]; ≥4th Line (n = 83)): 22 (26.5) n (%) | Best response (confirmed only): Stable disease ([4]; ≥4th Line (n = 83)): 49 (59.0) n (%) | ORR, n (95% CI) ([4]; ≥4th Line (n = 83)): 7.2 (2.7, 15.1) | PFS, Median ([4]; ≥4th Line (n = 83)): 23.9 weeks | PFS of second and third-line patients with Exons 9, 11, 13 or 17 KIT mutations ([4]; FIG. 27): comparable PFS | clinical benefit after dose escalation to 150 mg BID (PFS1 vs PFS2) ([4]; regardless of line of therapy, FIG. 25): additional clinical benefit | share of metabolism assigned to CYP3A4 [5]: 59%
